# Numbers after ± are expanded uncertainties.
# Assays:
# [1] = Molar enthalpy of transition or fusion; settings: Crystal; DSC
# [2] = Crystal; DTA
Molar enthalpy of transition or fusion [1] [kcal/mol],Normal melting temperature [2] [°C],Compound
6.88 ± 0.287,104.2 ± 0.53,"O=C(O)CCCCCC(=O)O [1,7-heptanedioic acid]"
4.04 ± 0.167,121.33 ± 0.53,"CC(C(=O)O)C(C)C(=O)O (stereo not drawn) [2,3-dimethyl-1,4-butanedioic acid]"
7.41 ± 0.335,85.46 ± 0.53,CC(CC(=O)O)CC(=O)O [3-methylpentanedioic acid]
4.47 ± 0.172,122.93 ± 0.53,O=C(O)c1ccccc1 [benzoic acid]

# — the NIST ThermoML archive (doi:10.1021/je200681k)
